For test [1], the system named is HepG2 cells. Put plainly: mitochondrial membrane potential (TMRE fluorescence) in HepG2 cells. As to conditions: NQO1-proficient HepG2 cells. The format is cell-based, human. As to the method: For determination of the inner mitochondrial membrane potential (ΔΨm), 20 nM of TMRE (tetramethylrhodamine ethyl ester) as a fluorescent indicator was continuously applied to be loaded on cells. In order to monitor mitochondrial Ca^2+, cells on glass coverslips were loaded with 10 μM Rhod-2 AM via cold loading/warm incubation. In order to monitor cytosolic Ca^2+, cells were co-loaded with 10 μM Fluo-4 AM at 37′C for 30 min. The cells were washed twice with a KB solution, and mounted in a perfusion chamber. Fluorescent imaging was taken using a confocal laser scanning microscope (LSM-510 META, Carl Zeiss) at a magnification of ×200 and ×400, in conjunction with appropriate laser lines and a filter set. Image analysis was carried out using LSM-510 META software (Zeiss). Images for TMRE (red fluorescence), Rhod-2 (red fluorescence) and Fluo-4 (green fluorescence) were obtained using an inverted Zeiss 510META laser-scanning confocal microscope equipped with ×63 numerical aperture, 1.4 oil-immersion planapochromat lens. Green fluorescence and red fluorescence were illuminated with light of 488 nm and 543 nm. Incident light was passed through a 545 nm dichroic mirror and observed via a 500 to 530 nm band-pass (green) filter and a 560 nm long-pass (red) barrier filter.
However, such effects were not observed in HEK293 cells. […]

For test [2], the system named is HepG2 cells. The test is described as follows: intracellular NADH / NAD(P)H concentration in HepG2 cells. The format is cell-based, human. The protocol:
A water-soluble tetrazolium salt was used to monitor the amount of NAD(P)H through its reduction to a yellow colored formazan dye. The total amount of NAD(P)H within viable cells in the medium was determined periodically by a spectrophotometer. Cells were seeded in 96-well plates (2×10^4 cells/well) and were cultured in 100 μl of a medium containing fetal bovine serum (FBS) and antibiotics for 24 hours. Immediately after treatment of the cells with a candidate compound (e.g., pyrano-1,2-naphthoquinone) at indicated concentrations and a 1/10 volume of a CCK-8 solution (Dojindo Molecular Technology), absorbance measurements were carried out using a spectrophotometer. […] In addition, a medium blank was prepared with only medium and physiological saline. In order to monitor monochromatic fluorescence (350 nm), light was illuminated using a 75 W xenon arc lamp directed via a 10 Hz chopper wheel; specific fluorescence intensity was measured at a wavelength of 405±15 nm and 460±10 nm.

Test [3] can be described thus: blood metabolic parameters in C57BL/6 DIO mice. The format is in vivo, mouse. As to the method:
O2 consumption of animals was recorded by a known method. For indirect calorimetry, mice were individually housed in calorimetry chambers (Oxymax OPTO-M3 system; Columbus Instruments, Columbus, Ohio). Animals were allowed to acclimate to a new environment for 48 hours prior to the experiment, and amounts of O2 consumption and CO2 production were measured for […] every 30 minutes. Mice were given free access to food and drinking water during the first 24 h period, and animals were given access to drinking water only during the second 24 h period. Blood samples were taken from a heparinized tube, immediately placed on ice, centrifuged and stored at −20[…] for future use. Enzymatic colorimetry was employed for quantification of triglyceride (TG), total cholesterol, free fatty acids, and glucose (Beckman Instruments, CA). Plasma insulin (Linco Research, MO), TNFα (R&D System), adiponectin (Linco Research, MO), resistin (KOMED) and leptin (Linco Research, MO) were quantified by ELISA.

The next test has as its system AMPKα, ACC. Put plainly: AMPKα and ACC phosphorylation in tissues of DIO mice (Western blot). The format is in vivo, mouse. As to the method: HepG2 (human hepatoma cell line), HEK293 (Human embryonic kidney cell line), and C2C12/L6 myoblasts were purchased from American Type Culture Collection (ATCC, Manassas, Va., USA). LKB−/− MEFs were purchased from R.A. DePinho. Rat ventricular myocytes were enzymatically isolated from the heart of adult […] by a known method. Phosphorylation of AMPK (Thr172) and ACC (Ser79) was measured by Western blot analysis using Cell Signaling Technologies and pan- and phospho-specific antibodies (Upstate Biotechnology, Inc., Lake Placid, N.Y.).
Using various proteins extracted from liver, gonadal fat (WAT), EDL and soleus muscle of DIO mice treated with a vehicle or βL for 2 days, T172 phosphorylation of AMPKα and S79 phosphorylation of ACC in each tissue were measured by Western blot analysis.
FIG. 26 is a photograph showing effects of an NQO1 activator on AMPK & ACC phosphorylation in C57BL/6 mice. In order to investigate anti-obesity effects of an NQO1 activator, the NQO1 activator was administered daily to DIO mice at a dose of 50 mg/kg via an oral route, and effects of the NQO1 activator on phosphorylation of AMPK and ACC, which play an important role in energy metabolism and lipogenesis in the liver and gonadal adipose tissues, were examined. […] Phosphorylated AMPK is believed to activate metabolism associated with energy. Whereas, it is believed that ACC, which is affected by activation of AMPK, is phosphorylated and lipogenic activity thereof is then inhibited, which will then exert some effects on lipid metabolism including inhibition of obesity.

The structures appear in SMILES notation.

As to `CC1(C)CCC2=C(O1)c1ccccc1C(=O)C2=O` [βL, 2,2-Dimethyl-3,4-dihydro-2H-benzo[h]chromene-5,6-dione], the “decrease of TMRE fluorescence” value in the test on HepG2 cells [1] is recorded as “about 20%”. In the test with HepG2 cells [2] (HepG2 cells having NQO1 activity, NAD(P)H fluorescence), the “decrease of NAD(P)H” value was “about 40%”. For the same molecule, the “intracellular NADH concentration” value in the test on HepG2 cells [2] (HepG2 having an NQO1 activity, treatment for 2 hours, real-time measurement) was “concentration-dependent decrease of NADH”. Also, in test [3] (50 mg/kg daily oral), the “blood level of resistin” value is on record as “significantly improved”; the “insulin resistance and leptin resistance” value is reported as “improved”. Also, in test [3] (Days 3, 7, 14, 28 and 56, 50 mg/kg daily oral), the “blood fat and glucose levels” value is “significantly improved”. The “phosphorylation of AMPK and ACC in the gonadal and liver tissues” value in the test on AMPKα, ACC (C57BL/6 DIO mice, 50 mg/kg daily, oral) is “has an effect on phosphorylation of AMPK and ACC”. Moreover, in the test with AMPKα, ACC (gonadal fat of DIO mice treated for 2 days), the “S79 phosphorylation of ACC and T172 phosphorylation of AMPKα” value was “no such effects”. Moreover, in the test on AMPKα, ACC (liver and muscle (EDL, Soleus) of DIO mice treated for 2 days), the “S79 phosphorylation of ACC and T172 phosphorylation of AMPKα” value was “increased”.

The values are drawn from US20140106387A1, “METHOD FOR CONTROLLING NAD(P)/NAD(P)H RATIO BY OXIDOREDUCTASE” (MD BIOALPHA CO., LTD., priority 2006, published 2014).
